One series has as its system mouse TTR gene. Nature of the series: In vivo editing in mouse liver, LNP with Cas9 mRNA and sgRNA G282, NGS. Conditions: for Mean % Indel: Table 5. How it is done:
LNPs were prepared using various amine lipids in a 4-component lipid system consisting of an ionizable lipid (e.g. an amine lipid), DSPC, cholesterol and PEG-2k-DMG. In assays for percent liver editing in mice, Cas9 mRNA and chemically modified sgRNA targeting a mouse sequence were formulated in LNPs, at either a 1:1 w/w ratio or a 1:2 w/w ratio.
The lipid components were dissolved in 100% ethanol with the lipid component molar ratios described below. The chemically modified sgRNA and Cas9 mRNA were combined and dissolved in 25 mM citrate, 100 mM NaCl, pH 5.0, resulting in a concentration of total RNA cargo of approximately 0.45 mg/mL. The LNPs were formulated with an N/P ratio of about 6, with the ratio of chemically modified sgRNA: Cas9 mRNA at either a 1:1 or 1:2 w/w ratio as described below.
CD-1 female mice, ranging from 6-10 weeks of age were used in each study. Animals were weighed and grouped according to body weight for preparing dosing solutions based on group average weight. LNPs were dosed via the lateral tail vein in a volume of 0.2 mL per animal (approximately 10 mL per kilogram body weight). The animals were periodically observed for adverse effects for at least 24 hours post dose.
For studies measuring in vivo editing in liver, CD-1 female mice were dosed at 0.1 mpk unless otherwise noted. Animals were euthanized at 6 or 7 days by exsanguinationvia cardiac puncture under isoflourane anesthesia. Liver tissue was collected from each animal for DNA extraction and analysis. Blood was collected into serum separator tubes or into tubes containing buffered sodium citrate for plasma as described herein. Cohorts of mice were measured for editing by Next-Generation Sequencing (NGS).
In brief, to quantitatively determine the efficiency of editing at the target location in the genome, genomic DNA was isolated and deep sequencing was utilized to identify the presence of insertions and deletions introduced by gene editing.
PCR primers were designed around the target site (e.g., B2M), and the genomic area of interest was amplified. Additional PCR was performed according to the manufacturer's protocols (Illumina) to add the necessary chemistry for sequencing. The amplicons were sequenced on an Illumina MiSeq instrument. The reads were aligned to the relevant reference genome (e.g., GRCm38) after eliminating those having low quality scores. The resulting files containing the reads were mapped to the reference genome (BAM files), where reads that overlapped the target region of interest were selected and the number of wild type reads versus the number of reads which contain an insertion, substitution, or deletion was calculated.
The editing percentage (e.g., the “editing efficiency” or “percent editing”) is defined as the total number of sequence reads with insertions or deletions over the total number of sequence reads, including wild type.
We assessed in vivo editing efficiency for materials delivered with formulations including various amine lipid compounds. Editing was measured using either G282 (SEQ ID No: 1) which targets the mouse TTR gene or G650 (SEQ ID No. 2) which targets the mouse B2M gene. Lipids described above were assessed for efficacy through in vivo editing experiments. LNPs were formulated at a 1:1 w/w ratio of sgRNA to Cas9 mRNA, and at an N/P ratio of about 6. Molar concentrations of lipids in the lipid component of the LNPs are expressed as mol % amine lipid/DSPC/cholesterol/PEG-2k-DMG, e.g. 50/10/38.5/1.5. The final LNPs were characterized to determine the encapsulation efficiency, polydispersity index, and average particle size according to the analytical methods provided above. Analysis of average particle size, polydispersity (PDI), total RNA content and encapsulation efficiency of RNA are shown in Table 2.
To assess whether the editing was dose responsive, experiments were performed in vivo at various LNP dose levels. […]

The subject of the next series is mouse B2M gene. The series is described as follows: In vivo editing in mouse liver, LNP with Cas9 mRNA and sgRNA G650, NGS. Conditions: Table 3; guide G650; CD-1 female mice, 0.1 mpk i.v., liver at 6 or 7 days; Exp. 2-7. The procedure, abridged:
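Female CD-1 mice given LNPs (amine lipid/DSPC/cholesterol/PEG-2k-DMG; N/P ~6; sgRNA G650:Cas9 mRNA 1:1 w/w) i.v. at 0.1 mpk unless noted. Liver collected day 6 or 7; B2M editing = indel reads over total reads by amplicon NGS.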

Series [1] can be described thus: Tolerability in rats: liver enzyme panel 24 hours post dose. As to conditions: Sprague Dawley female rats, 6 mg/kg, serum. It counts as in vivo, rat. The procedure:
For efficacy, Sprague Dawley female rats were dosed i.v. at 0.1 mpk or 0.03 mpk. 6-7 days post dose, rats were euthanized by CO2 asphyxiation. Blood was collected into serum separator tubes. Liver biopsy processed for gDNA and assessed for editing by NGS methods described in Example 115. Results are shown in Table 11 and FIGS. 12A and 12B. For tolerability, Sprague Dawley female rats were dosed at 6 mpk and 24 hours post dose the animals were euthanized by CO2 asphyxiation. Blood was collected into serum separator tubes and sent to an external CRO for quantitation of liver enzymes via a liver enzyme panel.

For another series, the system named is TTR in HUH7 cells. The series is described as follows: In vitro editing in HUH7 cells, LNP with Cas9 mRNA and sgRNA G000502, NGS. It counts as cell-based, human. As to conditions: Table 14; 2000 ng RNA per well, cells harvested 6 hours post-transfection, biological duplicate, G000502 target locus. The procedure: A series of compounds based on Compound 46 that vary by the inclusion of a C4-12 alkyl at the R^3 position of Formula (IA) (as illustrated in FIG. 13A) were tested for in vitro editing. The human hepatocellular carcinoma cell line […] (Japanese Collection of Research Bioresources Cell Bank, Cat. JCRB0403) was cultured in DMEM media supplemented with 10% fetal bovine serum and 1% Penicillin-Streptomycin. Cells were plated at a density of 20,000 cells/well in a 96-well plate 24 hours prior to transfection (˜80% confluent at time of transfection). The LNPs were formulated at a 1:2 w/w ratio of sgRNA and Cas9 mRNA using the cross flow procedure with lipid molar compositions as described in Table 13 at an N/P ratio of 6.0. LNP compositions were analyzed for average particle size, polydispersity (pdi), total RNA content and encapsulation efficiency of RNA as described in Example 115. Analysis of average particle size, polydispersity (PDI), total RNA content and encapsulation efficiency of RNA are shown in Table 13. LNPs were diluted into media, incubated for 5 minutes at 37 C and pipetted onto cells at a dose of 2000 ng RNA per well. Each condition was assayed in biological duplicate. Cells were harvested post-transfection at 6 hours. Genomic DNA was extracted using 50 μL/well BuccalAmp DNA Extraction solution (Epicentre, Cat. QE09050) according to manufacturer's protocol. All DNA samples were subjected to PCR and subsequent NGS analysis for editing at the G000502 target locus, as described above. As shown in Table 14 and FIG. 13B, all compounds tested were efficacious for in vitro editing.

Where [2] appears, read: Table 3, guide G282, CD-1 female mice, 0.1 mpk i.v., liver at 6 or 7 days, Exp. 1, 8, 9, 10.
[3] abbreviates: Table 7, G00282, CD-1 female mice i.v., dose 0.1 mpk, liver.
Where [4] appears, read: Table 7, G00282, CD-1 female mice i.v., dose 0.3 mpk, liver.
The mark [5] stands for this setting: G00282, CD-1 female mice i.v., dose 0.1 mpk, liver.
Where [6] appears, read: G00282, CD-1 female mice i.v., dose 0.3 mpk, liver.

The text below walks through data of patent US12077483B2, “Modified amine lipids” (Intellia Therapeutics, Inc., priority 2018, dated 2024).

`CCCCC/C=C\C/C=C\CCCCCCCC(=O)OCC(COC(=O)CCCCCCC/C=C\C/C=C\CCCCC)OC(=O)CCC(CCCCCCCCCCCC)OC(=O)OCCCN(C)C` (stereo not drawn) [Compound 1, 2-((4-(((3-(dimethylamino)propoxy)carbonyl)oxy)hexadecanoyl)oxy)propane-1,3-diyl (9Z,9′Z,12Z,12′Z)-bis(octadeca-9,12-dienoate)]: the “Editing Mean % Indel” value in the series with mouse TTR gene (setting [2]) was determined as 13.1%.
On to `CCCCC/C=C\C/C=C\CCCCCCCC(=O)OCC(COC(=O)CCCCCCC/C=C\C/C=C\CCCCC)OC(=O)CCC(CCCCCCCCCCCC)OC(=O)OCCCN1CCCC1` (stereo not drawn) [Compound 5, 2-((4-(((3-(pyrrolidin-1-yl)propoxy)carbonyl)oxy)hexadecanoyl)oxy)propane-1,3-diyl (9Z,9′Z,12Z,12′Z)-bis(octadeca-9,12-dienoate)], for which the results for the “Editing Mean % Indel” value in the series on mouse B2M gene, in the series with mouse TTR gene (setting [3]) and in the series with mouse TTR gene (setting [4]) were 17.5%, 26.1% and 52.5%, respectively. Moreover, the “efficacy for in vivo editing (in words)” value with mouse TTR gene (mouse liver, Examples 116 and 118) is recorded as “efficacious”.
Turning to `CCCCC/C=C\C/C=C\CCCCCCCC(=O)OCC(COC(=O)CCCCCCC/C=C\C/C=C\CCCCC)OC(=O)CCC(CCCCCCCCCCCC)OC(=O)NCCN(C)CC` (stereo not drawn) [Compound 7, 2-((4-(((2-(ethyl(methyl)amino)ethyl)carbamoyl)oxy)hexadecanoyl)oxy)propane-1,3-diyl (9Z,9′Z,12Z,12′Z)-bis(octadeca-9,12-dienoate)], the “Editing Mean % Indel” value with mouse B2M gene turned out to be 22.6%. In addition, the results for the “Mean % Indel” value with mouse TTR gene (setting [5]) and in the series on mouse TTR gene (setting [6]) were 49.1% and 69.4%, respectively.
Turning to `CCCCC/C=C\C/C=C\CCCCCCCC(=O)OCC(COC(=O)CCCCCCC/C=C\C/C=C\CCCCC)OC(=O)CCC(CCCCCCCCCCCC)OC(=O)NCC1CCCN1C` (stereo not drawn) [Compound 9, 2-((4-((((1-methylpyrrolidin-2-yl)methyl)carbamoyl)oxy)hexadecanoyl)oxy) propane-1,3-diyl (9Z,9′Z,12Z,12′Z)-bis(octadeca-9,12-dienoate)], the “Editing Mean % Indel” value in the series with mouse B2M gene worked out at 20.3%; in the series with mouse TTR gene (setting [2]), 44.1%. The “Mean % Indel” value with mouse TTR gene (setting [5]) came to 50.6%; with mouse TTR gene (setting [6]), 64.5%.
On to `CCCCC/C=C\C/C=C\CCCCCCCC(=O)OCC(COC(=O)CCCCCCC/C=C\C/C=C\CCCCC)OC(=O)CCC(CCCCCCCC)OC(=O)NCC1CCCN1C` (stereo not drawn) [Compound 35, 2-((4-((((1-methylpyrrolidin-2-yl)methyl)carbamoyl)oxy)dodecanoyl)oxy) propane-1,3-diyl (9Z,9′Z,12Z,12′Z)-bis(octadeca-9,12-dienoate)], for which, in the series on mouse B2M gene, the “Editing Mean % Indel” value is 35.5%.
On the same count and under the same terms, under `CCCCC/C=C\C/C=C\CCCCCCCC(=O)OCC(COC(=O)CCCCCCC/C=C\C/C=C\CCCCC)OC(=O)CCC(CCCCCCCC)OC(=O)OCCCN1CCCC1` (stereo not drawn) [Compound 36, 2-((4-(((3-(pyrrolidin-1-yl)propoxy)carbonyl)oxy)dodecanoyl)oxy)propane-1,3-diyl (9Z,9′Z,12Z,12′Z)-bis(octadeca-9,12-dienoate)] stands 30.0%.
As for `CCCCC/C=C\C/C=C\CCCCCCCC(=O)OCC(COC(=O)CCCCCCC/C=C\C/C=C\CCCCC)OC(=O)CCC(CCCCCCCCCC)OC(=O)NCCN(C)CC` (stereo not drawn) [Compound 39, 2-((4-(((2-(ethyl(methyl)amino)ethyl)carbamoyl)oxy)tetradecanoyl)oxy)propane-1,3-diyl (9Z,9′Z,12Z,12′Z)-bis(octadeca-9,12-dienoate)], in the series with mouse TTR gene (setting [2]), the “Editing Mean % Indel” value worked out at 36.5%.
Still for that read-out and setting: the result for `CCCCC/C=C\C/C=C\CCCCCCCC(=O)OCC(COC(=O)CCCCCCC/C=C\C/C=C\CCCCC)OC(=O)CCC(CCCCCC)OC(=O)NCCN(C)CC` (stereo not drawn) [Compound 40, 2-((4-(((2-(ethyl(methyl)amino)ethyl)carbamoyl)oxy)decanoyl)oxy)propane-1,3-diyl (9Z,9′Z,12Z,12′Z)-bis(octadeca-9,12-dienoate)] reads 44.7%.
As for `CCCCC/C=C\C/C=C\CCCCCCCC(=O)OCC(COC(=O)CCCCCCC/C=C\C/C=C\CCCCC)OC(=O)CCC(CCCCCC)OC(=O)OCCCN1CCCC1` (stereo not drawn) [Compound 45, 2-((4-(((3-(pyrrolidin-1-yl)propoxy)carbonyl)oxy)decanoyl)oxy)propane-1,3-diyl (9Z,9′Z,12Z,12′Z)-bis(octadeca-9,12-dienoate)], in series [1], the “ALP (U/L)” value is reported as 439.8 U/L, the “ALT (U/L)” value is reported as 163.2 U/L, the “AST (U/L)” value is 681 U/L and the “Creatine kinase (U/L)” value is listed as 1103 U/L. For the same compound, in series [1], the “GGT (U/L)” value is 2.4 U/L and the “Total Bilirubin” value is listed as 0.3 mg/dL.
`CCCCC/C=C\C/C=C\CCCCCCCC(=O)OCC(COC(=O)CCC(OCCCCCCCC)OCCCCCCCC)COC(=O)OCCCN(CC)CC` (stereo not drawn) [Compound 49, 3-((4,4-bis(octyloxy)butanoyl)oxy)-2-((((3-(diethylamino)propoxy)carbonyl)oxy)methyl)propyl (9Z,12Z)-octadeca-9,12-dienoate, reference compound] returned an Editing in the series with TTR in HUH7 cells of 22.6%. Besides, in series [1], the “ALP (U/L)” value is 784.3 U/L, the “ALT (U/L)” value is 408.5 U/L, the “AST (U/L)” value came to 534.8 U/L and the “Creatine kinase (U/L)” value came out at 157.5 U/L. Besides, in series [1], the “GGT (U/L)” value was 2 U/L and the “Total Bilirubin” value is 0.6 mg/dL. In the series on mouse TTR gene (setting [5]), the “Mean % Indel” value is reported as 26.8%. In the series on mouse TTR gene (setting [6]), the “Mean % Indel” value is listed as 60.6%. In addition, the “Editing Mean % Indel” value in the series on mouse TTR gene (setting [3]) amounted to 50.0%. In addition, in the series on mouse TTR gene (setting [4]), the “Editing Mean % Indel” value stood at 67.7%.
